Results on two compounds are retold here after article PMC11729428, “New Potent Inhibitor of Transforming Growth Factor-Beta (TGFβ) Signaling that is Efficacious against Microsatellite Stable Colorectal Cancer Metastasis in Combination with Immune Checkpoint Therapy in Mice” (ACS Pharmacology & Translational Science, 2024).

Where “and” joins values, the source holds several entries; their conditions need not be identical. Equal entries are not always repeated. Where two headings read alike, the source gives them in different places.

The target of one data set is T1, ALK4 (ACVR1B) (Homo sapiens, UniProt P36896).
T1 sequence (P36896 24-505): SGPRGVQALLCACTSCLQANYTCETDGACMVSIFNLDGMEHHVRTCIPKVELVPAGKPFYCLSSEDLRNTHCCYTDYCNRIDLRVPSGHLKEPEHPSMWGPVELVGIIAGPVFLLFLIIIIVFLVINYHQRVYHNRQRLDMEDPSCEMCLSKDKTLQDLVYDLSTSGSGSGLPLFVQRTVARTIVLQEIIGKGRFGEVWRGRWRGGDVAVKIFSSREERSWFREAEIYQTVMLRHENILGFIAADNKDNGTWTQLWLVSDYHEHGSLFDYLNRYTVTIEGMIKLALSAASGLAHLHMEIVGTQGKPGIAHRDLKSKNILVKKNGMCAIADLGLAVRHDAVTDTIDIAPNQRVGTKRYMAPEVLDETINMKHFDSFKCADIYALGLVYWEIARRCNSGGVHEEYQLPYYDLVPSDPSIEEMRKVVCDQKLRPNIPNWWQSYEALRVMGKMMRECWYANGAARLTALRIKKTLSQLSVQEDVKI
Description: KINOMEscan competitive binding assay (Kd). The following applies: analyses herein; read-out: Binding constant (Kd) ALK4 (ACVR1B). On the procedure: (§1) 5. Methods for In vitro characterizations of HYL001
(§2) Kinase affinity and selectivity
(§3) The affinity of the ALK5 inhibitor HYL001 was determined for the ALK kinase family using the […]
(§4) DNA-tagged kinases and immobilized assay ligands, using quantitative PCR —run by Eurofins/DiscoveryX (Birmingham AL, USA). Dissociation constants were calculated by measuring the amount of kinase captured on the solid support as a function of the test compound concentration. Kd values were obtained by an 11 -point half-log dilution range of 0.5–30,000 nM of inhibitor for ALK1 (ACVRL1), ALK2 (ACVR1), ALK3 (BMPR1A), ALK4 (ACVR1B), ALK6 (BMPR1B), ACVR2B and TGFβ R2. In addition, this technology was used to assess selectivity towards a panel of 97 Kinases (scanEDGE) by Eurofins Panlabs (Grapevine TX, USA).
(§5) The strength of competitive binding, defined as the percentage of binding inhibition of kinases to assay ligan d, was visualized using the TREEspot software (DiscoverRx Corporation) and a selectivity score was calculated (the fraction of non -mutated kinases tested with competitive binding inhibition above threshold percentages 65 […]

For a further data set, the target named is ALK5 (TGFBR1) (Homo sapiens, UniProt P36897). Description: KINOMEscan competitive binding assay (Kd). Particulars: analyses herein; HYL001 run twice, average 22.5 nM; read-out: Binding constant (Kd) ALK5 (TGFBR1). On the procedure:
as §1, §2, §3, §4, §5

Data set [1] is described as follows: Plasma pharmacokinetics after single oral administration in mice. In kind it is in vivo. The following applies: male, mouse, 71 mg/kg. On the procedure:
We assessed the in vivo pharmacokinetic properties of HYL001 after a single oral administration (dose of 71 mg/kg) in BALB/c mice as well as in Sprague–Dawley (SD) Rats. Liquid chromatography–tandem mass spectrometry (LC/MS/MS) was used for the determination of HYL001 in plasma (Figure S2 and Table 2).
6. Methods for in vivo characterizations of HYL001 […]
WinNonlin software (Version 8.0) […]

A further data set has as its system panel of enzymes. Description: In vitro safety pharmacology, enzymatic inhibition (SafetyScreen 44). In kind it is biochemical. The following applies: 10 μM HYL001. Here is the method: To identify potential adverse off-target drug interactions and derisk the development of HYL001 as a drug,[22] we performed binding and enzymatic inhibition assays with a panel of key proteins (mainly cell receptors, neurotransmitter transporters, and ion channels). […]
analysis by LC-MS/MS, using MRM mode. […]
related to phase I and phase II metabolism, respectively.
The PARs were used for calculation of metabolic stability. The 0 min area ratio was considered as 100%. The […]
incubation volume / number of cells (in millions) x K e. To calculate into full body context, the values of 120 […]
In vitro safety pharmacology […]
compared with historical values determined at Eurofins. Binding was defined as the % inhibition of the signal […]
enzyme activity. […] Results showing
The tail current amplitude, induced by a one […]
and expressed as % inhibition.
The Ames test was performed at Xenomatrix (Allschwil, Switzerland). Bacteria from the S. typhimurium

The next data set addresses T2, ALK2 (ACVR1) (Homo sapiens, UniProt Q04771).
T2 construct: purchased Eurofins/DiscoveryX (KINOMEscan service)
Description: KINOMEscan competitive binding assay (Kd). Particulars: analyses herein; read-out: Binding constant (Kd) ALK2 (ACVR1).
Text: as §1, §2
(§6) Kd values were obtained by an 11 -point
(§7) (BMPR1A), ALK4 (ACVR1B), ALK6 (BMPR1B), ACVR2B and TGFβ R2. […]

For another data set, the target named is T3, ALK1 (ACVRL1) (Homo sapiens, UniProt P37023).
T3 construct: purchased Eurofins/DiscoveryX (KINOMEscan service)
Description: KINOMEscan competitive binding assay (Kd). Particulars: analyses herein; read-out: Binding constant (Kd) ALK1 (ACVRL1).
Text: as §1, §2, §6, §7

Another data set concerns the target T4, ALK3 (BMPR1A) (Homo sapiens, UniProt P36894).
T4 construct: purchased Eurofins/DiscoveryX (KINOMEscan service)
Description: KINOMEscan competitive binding assay (Kd). Particulars: analyses herein; read-out: Binding constant (Kd) ALK3 (BMPR1A).
Text: as §1, §2, §6, §7

The target in data set [2] is T5, ALK6 (BMPR1B) (Homo sapiens, UniProt O00238).
T5 construct: purchased Eurofins/DiscoveryX (KINOMEscan service)
Description: KINOMEscan competitive binding assay (Kd). Particulars: analyses herein; read-out: Binding constant (Kd) ALK6 (BMPR1B).
Text: as §1, §2, §6, §7

The target of the next data set is T6, TGFBR2 (Homo sapiens, UniProt P37173).
T6 construct: purchased Eurofins/DiscoveryX (KINOMEscan service)
Description: KINOMEscan competitive binding assay (Kd). The following applies: analyses herein; read-out: Binding constant (Kd) TGFBR2.
Text: as §1, §2, §6, §7

A further data set has as its target T7, ACVR2B (Homo sapiens, UniProt Q13705).
T7 construct: purchased Eurofins/DiscoveryX (KINOMEscan service)
Description: KINOMEscan competitive binding assay (Kd). The following applies: analyses herein; read-out: Binding constant (Kd) ACVR2B.
Text: as §1, §2, §6, §7

The next data set deals with hERG potassium channel (Homo sapiens, UniProt Q12809). Description: in vitro. The following applies: CHO-K1 cells (hERG current).
Data set [3] concerns the target T5, ALK6 (BMPR1B). On the set-up: method as in earlier work. The following applies: reported data ref 15; read-out: Binding constant (Kd) ALK6 (BMPR1B); cited from earlier work.

hERG potassium channel, sequence (Q12809 whole entry): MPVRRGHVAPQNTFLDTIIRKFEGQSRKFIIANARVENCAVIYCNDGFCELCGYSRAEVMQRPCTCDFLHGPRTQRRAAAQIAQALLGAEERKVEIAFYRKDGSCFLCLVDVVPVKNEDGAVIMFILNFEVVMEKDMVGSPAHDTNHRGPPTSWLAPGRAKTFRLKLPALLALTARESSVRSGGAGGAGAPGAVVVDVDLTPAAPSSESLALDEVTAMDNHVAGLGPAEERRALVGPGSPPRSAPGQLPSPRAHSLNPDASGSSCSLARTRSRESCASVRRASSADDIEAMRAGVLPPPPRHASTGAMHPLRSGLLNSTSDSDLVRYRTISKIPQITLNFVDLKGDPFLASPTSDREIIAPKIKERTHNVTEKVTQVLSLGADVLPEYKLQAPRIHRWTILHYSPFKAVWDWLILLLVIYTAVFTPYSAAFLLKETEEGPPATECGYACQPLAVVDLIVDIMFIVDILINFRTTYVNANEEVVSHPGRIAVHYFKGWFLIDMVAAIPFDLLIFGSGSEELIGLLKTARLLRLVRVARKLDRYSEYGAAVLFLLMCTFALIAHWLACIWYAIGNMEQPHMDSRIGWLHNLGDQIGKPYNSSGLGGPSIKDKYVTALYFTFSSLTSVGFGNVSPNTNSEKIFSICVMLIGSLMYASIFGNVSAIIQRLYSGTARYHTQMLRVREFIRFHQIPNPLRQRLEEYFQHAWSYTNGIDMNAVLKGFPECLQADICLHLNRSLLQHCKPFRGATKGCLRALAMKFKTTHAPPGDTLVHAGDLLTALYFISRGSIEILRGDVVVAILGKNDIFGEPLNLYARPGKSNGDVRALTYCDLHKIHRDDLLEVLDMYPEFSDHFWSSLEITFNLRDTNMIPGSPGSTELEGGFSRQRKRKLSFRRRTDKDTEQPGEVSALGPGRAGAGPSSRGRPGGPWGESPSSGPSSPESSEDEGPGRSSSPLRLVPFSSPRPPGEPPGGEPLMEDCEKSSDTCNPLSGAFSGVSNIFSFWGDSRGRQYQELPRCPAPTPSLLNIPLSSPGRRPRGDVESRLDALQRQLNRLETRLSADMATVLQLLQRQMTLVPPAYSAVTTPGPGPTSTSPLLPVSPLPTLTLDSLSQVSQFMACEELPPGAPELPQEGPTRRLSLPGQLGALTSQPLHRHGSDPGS
ALK5 (TGFBR1), sequence (P36897 34-503): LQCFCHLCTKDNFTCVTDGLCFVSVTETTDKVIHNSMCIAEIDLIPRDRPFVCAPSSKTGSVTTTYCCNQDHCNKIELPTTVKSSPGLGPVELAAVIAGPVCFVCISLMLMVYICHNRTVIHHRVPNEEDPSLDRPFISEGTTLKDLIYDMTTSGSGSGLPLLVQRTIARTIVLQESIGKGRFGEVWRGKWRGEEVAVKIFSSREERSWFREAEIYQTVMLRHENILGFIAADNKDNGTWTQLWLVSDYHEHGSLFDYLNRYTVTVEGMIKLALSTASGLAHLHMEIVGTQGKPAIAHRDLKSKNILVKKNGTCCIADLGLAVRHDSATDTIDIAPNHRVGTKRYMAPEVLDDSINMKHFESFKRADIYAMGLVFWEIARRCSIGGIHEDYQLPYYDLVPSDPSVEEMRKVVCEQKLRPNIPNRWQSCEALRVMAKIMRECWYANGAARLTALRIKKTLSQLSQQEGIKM
T5 sequence (O00238 14-502): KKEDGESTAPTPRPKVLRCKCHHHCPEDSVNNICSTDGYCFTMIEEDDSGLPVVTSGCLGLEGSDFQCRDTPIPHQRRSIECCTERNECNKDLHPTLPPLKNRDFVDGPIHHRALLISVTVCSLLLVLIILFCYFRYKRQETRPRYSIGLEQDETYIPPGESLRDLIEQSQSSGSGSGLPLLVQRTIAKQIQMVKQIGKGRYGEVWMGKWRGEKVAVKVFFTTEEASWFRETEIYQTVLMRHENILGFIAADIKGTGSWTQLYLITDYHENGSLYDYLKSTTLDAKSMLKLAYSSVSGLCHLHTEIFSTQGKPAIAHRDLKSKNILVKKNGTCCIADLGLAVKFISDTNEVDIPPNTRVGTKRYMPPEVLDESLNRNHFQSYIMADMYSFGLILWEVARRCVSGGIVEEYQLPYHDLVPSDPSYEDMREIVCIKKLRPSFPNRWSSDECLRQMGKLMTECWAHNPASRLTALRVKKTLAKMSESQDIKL
T2 sequence (Q04771 21-509): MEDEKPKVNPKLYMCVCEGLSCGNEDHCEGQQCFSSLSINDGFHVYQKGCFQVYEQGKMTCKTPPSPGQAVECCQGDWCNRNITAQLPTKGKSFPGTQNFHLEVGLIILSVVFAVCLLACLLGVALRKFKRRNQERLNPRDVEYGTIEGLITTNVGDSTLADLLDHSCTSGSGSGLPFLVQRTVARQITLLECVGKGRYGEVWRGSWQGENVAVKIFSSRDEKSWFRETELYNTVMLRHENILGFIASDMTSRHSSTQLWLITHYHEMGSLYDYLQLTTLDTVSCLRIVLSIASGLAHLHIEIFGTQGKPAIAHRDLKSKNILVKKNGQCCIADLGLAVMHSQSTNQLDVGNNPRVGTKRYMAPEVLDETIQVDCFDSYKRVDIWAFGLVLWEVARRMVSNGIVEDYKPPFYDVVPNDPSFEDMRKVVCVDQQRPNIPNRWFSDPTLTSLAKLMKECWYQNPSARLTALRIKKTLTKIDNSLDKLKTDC
T7 sequence (Q13705 19-512): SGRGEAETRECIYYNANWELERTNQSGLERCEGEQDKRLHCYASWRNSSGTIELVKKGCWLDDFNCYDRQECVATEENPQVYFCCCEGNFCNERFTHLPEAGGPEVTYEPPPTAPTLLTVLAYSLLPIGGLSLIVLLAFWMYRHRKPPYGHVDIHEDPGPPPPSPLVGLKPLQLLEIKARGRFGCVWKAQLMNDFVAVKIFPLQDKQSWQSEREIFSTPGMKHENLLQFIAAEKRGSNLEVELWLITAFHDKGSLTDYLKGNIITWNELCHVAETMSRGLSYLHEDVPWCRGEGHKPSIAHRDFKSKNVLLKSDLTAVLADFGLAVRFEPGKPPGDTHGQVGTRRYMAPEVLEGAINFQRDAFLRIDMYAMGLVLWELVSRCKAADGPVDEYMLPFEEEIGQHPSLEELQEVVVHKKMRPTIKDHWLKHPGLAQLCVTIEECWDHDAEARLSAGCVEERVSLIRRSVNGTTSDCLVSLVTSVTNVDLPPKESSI
T4 sequence (P36894 24-532): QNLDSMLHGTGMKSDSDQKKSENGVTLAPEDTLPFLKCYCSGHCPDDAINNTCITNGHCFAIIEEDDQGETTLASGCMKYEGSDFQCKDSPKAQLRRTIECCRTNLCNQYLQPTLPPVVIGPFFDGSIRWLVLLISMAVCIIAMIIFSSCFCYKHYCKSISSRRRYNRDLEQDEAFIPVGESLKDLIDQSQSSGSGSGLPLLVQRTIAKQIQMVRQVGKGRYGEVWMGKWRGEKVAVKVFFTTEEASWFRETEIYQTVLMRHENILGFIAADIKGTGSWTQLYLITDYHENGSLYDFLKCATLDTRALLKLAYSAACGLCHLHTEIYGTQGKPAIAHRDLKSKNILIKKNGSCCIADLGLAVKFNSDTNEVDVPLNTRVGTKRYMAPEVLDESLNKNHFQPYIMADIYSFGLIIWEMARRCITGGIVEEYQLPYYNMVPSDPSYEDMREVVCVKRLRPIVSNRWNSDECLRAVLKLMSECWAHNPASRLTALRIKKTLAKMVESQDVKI
T6 sequence (P37173 23-567): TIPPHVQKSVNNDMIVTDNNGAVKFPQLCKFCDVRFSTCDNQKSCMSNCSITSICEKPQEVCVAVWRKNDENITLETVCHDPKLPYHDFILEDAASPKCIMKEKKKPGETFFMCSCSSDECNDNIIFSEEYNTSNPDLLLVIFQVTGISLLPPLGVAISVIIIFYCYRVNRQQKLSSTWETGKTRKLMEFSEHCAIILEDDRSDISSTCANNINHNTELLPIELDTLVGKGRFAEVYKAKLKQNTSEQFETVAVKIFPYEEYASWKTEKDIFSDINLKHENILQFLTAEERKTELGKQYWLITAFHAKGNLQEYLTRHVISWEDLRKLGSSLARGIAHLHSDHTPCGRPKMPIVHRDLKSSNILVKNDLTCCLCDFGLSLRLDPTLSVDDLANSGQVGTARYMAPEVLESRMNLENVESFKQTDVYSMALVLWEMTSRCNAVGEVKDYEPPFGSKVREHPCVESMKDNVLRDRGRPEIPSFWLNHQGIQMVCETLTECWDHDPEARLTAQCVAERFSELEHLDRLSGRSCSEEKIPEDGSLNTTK
T3 sequence (P37023 22-503): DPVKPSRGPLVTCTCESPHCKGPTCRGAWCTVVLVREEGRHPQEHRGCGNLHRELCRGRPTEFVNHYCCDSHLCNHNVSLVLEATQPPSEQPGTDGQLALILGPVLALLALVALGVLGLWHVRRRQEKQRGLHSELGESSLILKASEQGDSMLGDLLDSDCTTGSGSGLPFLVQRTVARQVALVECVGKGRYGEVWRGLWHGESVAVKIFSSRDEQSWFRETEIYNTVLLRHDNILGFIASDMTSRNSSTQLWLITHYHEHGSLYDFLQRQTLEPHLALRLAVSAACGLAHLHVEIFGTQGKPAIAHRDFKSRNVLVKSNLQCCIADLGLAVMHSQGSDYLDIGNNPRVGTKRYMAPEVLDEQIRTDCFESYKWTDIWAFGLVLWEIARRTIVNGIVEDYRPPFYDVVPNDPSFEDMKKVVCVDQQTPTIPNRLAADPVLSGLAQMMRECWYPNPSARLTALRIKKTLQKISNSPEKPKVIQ
Description for hERG potassium channel: clamp (Eurofins, Celle L’Evescault, France) on CHO -K1 cells. The tail current amplitude, induced by a one
second test pulse to -40 mV after a two second pulse to +20 mV, was measured before and aft er drug incubation

By Kd is commonly meant the constant that tells how readily two partners part at equilibrium. A word on the half-life: it is the time in which the quantity being followed falls by half. For orientation: AUC(0-inf) means total exposure, with the tail of the curve extrapolated. Low readings indicate low exposure, high ones high exposure. As a reminder, the AUC(0-t) is the area under the concentration-time curve up to a stated or last time point. A lower AUC(0-t) goes with low exposure. As a reminder, the CL/F is clearance divided by bioavailability, as obtained after extravascular dosing. A word on the Cmax: it is the maximum level reached in the sampled fluid or tissue. The term Tmax denotes the time at which the peak concentration occurs. Usually inhibition stands for the drop in the measured response relative to a control, in per cent. A lower inhibition goes with a response near the control. Turning to `Cc1cccc(-c2nn3c(c2-c2ccnc4ccc(O)cc24)CCC3)n1` [HYL001, 4-(2-(6-Methylpyridin-2-yl)-5,6-dihydro-4H-pyrrolo[1,2-b]pyrazol-3-yl)quinolin-6-ol], the Kd on ALK4 (ACVR1B) is 13 nM; at ALK5 (TGFBR1), 25 nM and 22.5 nM; on ALK2 (ACVR1), 7500 nM; at ALK1 (ACVRL1), 11000 nM; at ALK3 (BMPR1A), 6900 nM; at ALK6 (BMPR1B) [2], 160 nM. Also, the figures for the Kd on TGFBR2 and at ACVR2B were 2000 nM and 100 nM, respectively. In [1] (BALB/c, po), this compound had a half-life of about 2.5 h. Further, in [1] (mice (♂ BALB/c)), the AUC(0-inf) came out at 4110 ng·h/mL. Also, the exposure AUC(0-t) in data set [1] (mice (♂ BALB/c)) was found to be 3520 ng·h/mL. This compound displayed an apparent clearance CL/F in data set [1] (mice (♂ BALB/c)) of 288 mL/min/kg. For the same compound, the peak level in data set [1] (mice (♂ BALB/c)) (Cmax) was 2050 ng/mL. Besides, the time to peak (Tmax) in [1] (mice (♂ BALB/c)) stood at 0.25 h. Further, the Vd/F in data set [1] (mice (♂ BALB/c), read-out: Vss/F) is 66.7 L/kg. Further, the “Inhibition of any of the tested enzymatic activities” value with panel of enzymes is at most 50%. The same compound yielded an inhibition at 3.7 µM at hERG potassium channel of 1.8%. The compound also returned an inhibition at 11.1 µM against hERG potassium channel of 8.4%. Besides, the inhibition at 33.3 µM against hERG potassium channel was found to be 22.8%.

In the case of `Cc1cccc(-c2nn3c(c2-c2ccnc4ccc(C(N)=O)cc24)CCC3)n1` [galunisertib], the Kd on ALK6 (BMPR1B) [3] was 471 nM.
